We go through 16 compounds from ChEMBL document CHEMBL3046134, “Synthesis and antiviral activity of benzimidazolyl- and triazolyl-1,3,5-triazines” (Med Chem Res, 2012).

In data set [1] the test system is Human alphaherpesvirus 1. Nature of the data set: Antiviral activity against Human herpesvirus 1 infected African green monkey Vero cells assessed as protection against virus-induced cytopathic effect after 3 days by plaque reduction assay. Type of data set: functional, organism-based. The following applies: Human alphaherpesvirus 1, Vero, 72 h.
The nature of data set [2]: Selectivity index, ratio of CC50 for african green monkey Vero cells to EC50 for HSV1 infected in African green monkey Vero cells.
Data set [3] is described as follows: Cytotoxicity against Chlorocebus aethiops (African green monkey) Vero cells assessed as cell viability after 3 days by Alamar blue assay. Type of data set: cell-based. To be noted: chlorocebus sabaeus.

Converted amounts (≈) assume the structure as drawn.

On to `Cc1ccc2[nH]c(SCc3nc(N)nc(Nc4ccccc4C)n3)nc2c1`, for which the EC50 in data set [1] is more than 10 µg/mL.

For the compound `COc1ccc(Nc2nc(N)nc(CSc3nnc(-c4ccccc4)n3-c3ccccc3)n2)cc1`, in data set [1], the EC50 was more than 10 µg/mL.

Turning to `Cc1ccccc1Nc1nc(N)nc(CSc2nnc(-c3ccccc3)n2-c2ccccc2)n1`, the EC50 in data set [1] amounted to 7.5 µg/mL (≈ 16.1 µM). Further, the “Ratio CC50/EC50” value in data set [2] was 234. In data set [3], the CC50 at 72 h was 1750 µg/mL (≈ 3750 µM).

With `COc1ccc(Nc2nc(N)nc(CSc3nnc(-c4ccncc4)n3-c3ccccc3)n2)cc1`, in data set [1], the 50% effective concentration (EC50) came to 7 µg/mL (≈ 14.5 µM). The “Ratio CC50/EC50” value in data set [2] amounted to 215. Besides, in data set [3], the CC50 at 72 h was 1500 µg/mL (≈ 3100 µM).

As to `Cc1ccccc1Nc1nc(N)nc(CSc2nnc(-c3ccncc3)n2-c2ccccc2)n1`, the EC50 in data set [1] stood at 6 µg/mL (≈ 12.8 µM). In data set [2], the “Ratio CC50/EC50” value is 275. The CC50 at 72 h in data set [3] stood at 1650 µg/mL (≈ 3530 µM).

For the compound `COc1ccc(Nc2nc(N)nc(CSc3nnc(-c4ccccc4)n3/N=C/c3ccccc3)n2)cc1`, the EC50 in data set [1] is 8 µg/mL (≈ 15.7 µM). In addition, the “Ratio CC50/EC50” value in data set [2] is listed as 188. The CC50 at 72 h in data set [3] came out at 1500 µg/mL (≈ 2940 µM).

In the case of `Cc1ccccc1Nc1nc(N)nc(CSc2nnc(-c3ccccc3)n2/N=C/c2ccccc2)n1`, the 50% effective concentration (EC50) in data set [1] was 3.5 µg/mL (≈ 7.09 µM). The “Ratio CC50/EC50” value in data set [2] worked out at 358. In data set [3], the CC50 at 72 h was determined as 1250 µg/mL (≈ 2530 µM).

For `Cc1ccccc1Nc1nc(N)nc(CSc2nnc(-c3ccccc3)n2/N=C/c2ccc(Br)cc2)n1`, the EC50 in data set [1] turned out to be 5 µg/mL (≈ 8.73 µM). For the same compound, the “Ratio CC50/EC50” value in data set [2] amounted to 300. The CC50 at 72 h in data set [3] was 1500 µg/mL (≈ 2620 µM).

Consider `Nc1nc(CSc2nc3ccccc3[nH]2)nc(Nc2ccccc2)n1`, for which the concentration giving a half-maximal response (EC50) in data set [1] was more than 10 µg/mL.

As for `Cc1ccc(Nc2nc(N)nc(CSc3nc4ccccc4[nH]3)n2)cc1`, in data set [1], the 50% effective concentration (EC50) is more than 10 µg/mL.

For the compound `Nc1nc(CSc2nc3ccccc3[nH]2)nc(Nc2ccc(Cl)cc2)n1`, the EC50 in data set [1] is 8.5 µg/mL (≈ 22.1 µM). For the same compound, the “Ratio CC50/EC50” value in data set [2] is 175. Further, the CC50 at 72 h in data set [3] stood at 1500 µg/mL (≈ 3910 µM).

As to `COc1ccc(Nc2nc(N)nc(CSc3nc4ccccc4[nH]3)n2)cc1`, the half-maximal effective concentration (EC50) in data set [1] is more than 10 µg/mL.

For `Cc1ccccc1Nc1nc(N)nc(CSc2nc3ccccc3[nH]2)n1`, the half-maximal effective concentration (EC50) in data set [1] came to 9 µg/mL (≈ 24.8 µM). Further, in data set [3], the CC50 at 72 h was more than 2000 µg/mL.

In the case of `Cc1ccc2[nH]c(SCc3nc(N)nc(Nc4ccccc4)n3)nc2c1`, the EC50 in data set [1] was more than 10 µg/mL.

Regarding `Cc1ccc(Nc2nc(N)nc(CSc3nc4cc(C)ccc4[nH]3)n2)cc1`, the EC50 in data set [1] is more than 10 µg/mL.

In the case of `Nc1nc2c(ncn2COCCO)c(=O)[nH]1` [ACYCLOVIR], the EC50 in data set [1] turned out to be 1.5 µg/mL (≈ 6.66 µM). For the same compound, the “Ratio CC50/EC50” value in data set [2] stood at 850. Besides, the CC50 at 72 h in data set [3] amounted to 1280 µg/mL (≈ 5660 µM).
